This is an account of results in ChEMBL document CHEMBL5058642, “Data for DCP probe TP-051” (2022).

For series [1], the target named is Sodium-dependent dopamine transporter (Homo sapiens, UniProt Q01959). Nature of the series: GPCRScan assay: inhibition of DAT. Set-up: radioligand conc. used [nm] 3.6 – 16.0, parental cells stable HEK.
Series [2] deals with Prostaglandin G/H synthase 1 (Homo sapiens) (UniProt P23219). Briefly: Inhibition of Cyclooxygenase COX-1 at compound concentration of 10.0 uM in the Eurofins-Panlabs enzyme assay (Eurofins_assay_116020). The conditions noted are these: Compound concentration 10.0 uM.
Series [3] concerns the target Phosphodiesterase 3 (Homo sapiens) (UniProt Q14432+Q13370). Nature of the series: Inhibition of Phosphodiesterase PDE3 at compound concentration of 10.0 uM in the Eurofins-Panlabs enzyme assay (Eurofins_assay_152000). The format is protein assay. Set-up: substrate with concentration 1.01 uM [3H] cAMP + cAMP, incubation time 20 min, incubation temperature 25 C. The conditions noted are these: Compound concentration 10.0 uM.

For series [4], the target named is Mitogen-activated protein kinase 3 (Homo sapiens) (UniProt P27361). Nature of the series: Inhibition of Protein Serine/Threonine Kinase, MAPK3 (ERK1) at 10 µM in the Eurofins-Panlabs enzyme assay (Eurofins_assay_171000). The conditions noted are these: Compound concentration 10.0 uM.
Series [5] addresses T1, 5-hydroxytryptamine receptor 3A (Homo sapiens) (UniProt P46098).
T1 sequence (whole entry): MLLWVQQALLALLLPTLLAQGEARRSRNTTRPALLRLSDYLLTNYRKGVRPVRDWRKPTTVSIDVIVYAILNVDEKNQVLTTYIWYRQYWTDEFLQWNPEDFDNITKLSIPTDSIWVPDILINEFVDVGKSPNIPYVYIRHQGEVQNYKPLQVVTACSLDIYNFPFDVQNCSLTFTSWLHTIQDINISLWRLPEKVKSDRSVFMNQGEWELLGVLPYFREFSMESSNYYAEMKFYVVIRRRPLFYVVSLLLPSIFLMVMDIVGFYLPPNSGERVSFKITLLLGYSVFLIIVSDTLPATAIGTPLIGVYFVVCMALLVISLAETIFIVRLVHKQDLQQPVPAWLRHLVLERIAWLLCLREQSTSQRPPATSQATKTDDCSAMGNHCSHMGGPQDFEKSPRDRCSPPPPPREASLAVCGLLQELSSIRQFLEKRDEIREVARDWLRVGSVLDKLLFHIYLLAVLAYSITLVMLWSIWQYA
Briefly: Inhibition of Serotonin (5-Hydroxytryptamine) 5-HT3 at 10 µM in the Eurofins-Panlabs radioligand binding assay (Eurofins_assay_271910). Also on record: ligand concentration 0.69 nM. Conditions: Compound concentration 10.0 uM; call rule not given here.

Another series concerns the target MAO-B (Homo sapiens, UniProt P27338). Nature of the series: Inhibition of Monoamine Oxidase MAO-B at compound concentration of 10.0 uM in the Eurofins-Panlabs enzyme assay (Eurofins_assay_140120). Set-up: substrate with concentration 50 uM Kynuramine, incubation time 60 min, incubation temperature 37 C. The conditions noted are these: recombinant human MAO-B expressed in insect Hi5 cells, probe Kynuramine, 50 uM, compound concentration 10 uM.

In series [6] the target is Cathepsin G (Homo sapiens) (UniProt P08311). Nature of the series: Inhibition of Peptidase, CTSG (Cathepsin G) at 10 µM in the Eurofins-Panlabs enzyme assay (Eurofins_assay_112510). Also on record: substrate with concentration. The conditions noted are these: Compound concentration 10.0 uM.
For series [7], the species on record is Bos taurus. Nature of the series: Protein Serine/Threonine Kinase, PKA, Non-Selective Eurofins-Panlabs enzyme assay. Type of series: protein-complex assay. Set-up: substrate with concentration 370 µg/mL Histone Type III-S, incubation time 15 min, incubation temperature 25 °C. Conditions: Compound concentration 10.0 uM.
Series [8] is filed under the species Rattus norvegicus. Nature of the series: Protein Serine/Threonine Kinase, PKC, Non-Selective Eurofins-Panlabs enzyme assay. Conditions: Compound concentration 10.0 uM.
Series [9] deals with Vasopressin V2 receptor (Homo sapiens) (UniProt P30518). Briefly: Inhibition of Vasopressin V2 at 10 µM in the Eurofins-Panlabs radioligand binding assay (Eurofins_assay_287610). Also on record: ligand concentration 4 nM. The conditions noted are these: Compound concentration 10.0 uM.
Series [10] concerns the target Polyunsaturated fatty acid 5-lipoxygenase (Homo sapiens) (UniProt P09917). Nature of the series: Lipoxygenase 5-LO Eurofins-Panlabs enzyme assay. Conditions: Compound concentration 10.0 uM.
The species entered for series [11] is Bos taurus. Nature of the series: Phosphodiesterase PDE6 Eurofins-Panlabs enzyme assay. Set-up: substrate with concentration [3H] cGMP + cGMP, incubation time 20 min, incubation temperature 25 °C. The conditions noted are these: Compound concentration 10.0 uM.
Series [12] deals with Epidermal growth factor receptor (Homo sapiens) (UniProt P00533). Briefly: Protein Tyrosine Kinase, EGF Receptor Eurofins-Panlabs enzyme assay. Also on record: substrate with concentration 10 µg/mL Poly(Glu:Tyr), incubation time 60 min, incubation temperature 25 °C. Conditions: Compound concentration 10.0 uM.
The species named for series [13] is Rattus norvegicus. Briefly: ATPase, Ca2+ Eurofins-Panlabs enzyme assay. Conditions: Compound concentration 10.0 uM.
The target in series [14] is Carbonic anhydrase (Homo sapiens) (UniProt P00918+P43166+P00915+P07451+P23280+O43570+Q9ULX7+Q16790+P22748+Q8N1Q1+Q9Y2D0+P35218). Nature of the series: Carbonic Anhydrase Eurofins-Panlabs enzyme assay. The format is protein assay. Conditions: Compound concentration 10.0 uM.
Series [15] concerns the target Coagulation factor VII (Homo sapiens) (UniProt P08709). Briefly: Peptidase, Factor VIIa Eurofins-Panlabs enzyme assay. Also on record: substrate with concentration. The conditions noted are these: Compound concentration 10.0 uM.
The target of a further series is Renin (Homo sapiens) (UniProt P00797). Briefly: Peptidase, Renin Eurofins-Panlabs enzyme assay. The conditions noted are these: Compound concentration 10.0 uM.
For series [16], the target named is Disintegrin and metalloproteinase domain-containing protein 17 (Homo sapiens) (UniProt P78536). Nature of the series: Peptidase, Tumor Necrosis Factor-alpha Converting Enzyme (TACE) Eurofins-Panlabs enzyme assay. Also on record: substrate with concentration. Conditions: Compound concentration 10.0 uM.
Series [17] has as its target Cyclin-dependent kinase 1/cyclin B (Homo sapiens) (UniProt P06493+P14635+Q8WWL7+O95067). Briefly: Protein Serine/Threonine Kinase, cdk1/Cyclin B Eurofins-Panlabs enzyme assay. The conditions noted are these: Compound concentration 10.0 uM. The format is protein-complex assay.
Series [18] concerns the target Protein phosphatase 3 catalytic subunit alpha (Homo sapiens) (UniProt Q08209). Briefly: Protein Serine/Threonine Phosphatase, Calcineurin, PP2B Eurofins-Panlabs enzyme assay. The conditions noted are these: Compound concentration 10.0 uM.
For series [19], the target named is Steroid 5-alpha-reductase (Rattus norvegicus) (UniProt P24008+P31214). Nature of the series: Steroid 5α-Reductase Eurofins-Panlabs enzyme assay. Type of series: protein assay. Set-up: substrate with concentration. The conditions noted are these: Compound concentration 10.0 uM.
The target in series [20] is Thromboxane-A synthase (Homo sapiens) (UniProt P24557). Nature of the series: Thromboxane Synthase Eurofins-Panlabs enzyme assay. The conditions noted are these: Compound concentration 10.0 uM.
For series [21], the target named is Neuromedin-K receptor (Homo sapiens) (UniProt P29371). Briefly: Tachykinin NK3 Eurofins-Panlabs radioligand binding assay. Conditions: Compound concentration 10.0 uM.
Series [22] addresses 5-hydroxytryptamine receptor 5A (Homo sapiens) (UniProt P47898). Conditions: Compound concentration 10.0 uM.
Series [23] has as its target Sodium-dependent noradrenaline transporter (Homo sapiens) (UniProt P23975). Conditions: Compound concentration 10.0 uM.
The target in series [24] is Alpha-1B adrenergic receptor (Homo sapiens) (UniProt P35368). Conditions: Compound concentration 10.0 uM.
The species entered for series [25] is Rattus norvegicus. The conditions noted are these: Compound concentration 10.0 uM.
Series [26] has as its target Alpha-1D adrenergic receptor (Homo sapiens) (UniProt P25100). Conditions: Compound concentration 10.0 uM.
In series [27] the target is cGMP-specific 3',5'-cyclic phosphodiesterase (Homo sapiens) (UniProt O76074). Conditions: Compound concentration 10.0 uM.
For the next series, the species on record is Homo sapiens. The conditions noted are these: Compound concentration 10.0 uM.
For series [28], the target named is Xanthine dehydrogenase/oxidase (Bos taurus) (UniProt P80457). Nature of the series: Xanthine Oxidase Eurofins-Panlabs enzyme assay. Conditions: cattle, bovine milk xanthine oxidase, probe Xanthine, 165 µM.
Series [29] addresses Cannabinoid receptor 1 (Homo sapiens) (UniProt P21554). Nature of the series: Cannabinoid CB1 Eurofins-Panlabs radioligand binding assay. The conditions noted are these: Compound concentration 10.0 uM.
The target in series [30] is Free fatty acid receptor 1 (Homo sapiens, UniProt O14842). Briefly: FLIPR functional assay (Ca influx activity of CHO cells).
Series [31] has as its target C5a anaphylatoxin chemotactic receptor 1 (Homo sapiens) (UniProt P21730). Briefly: Anaphylatoxin C5a Eurofins-Panlabs radioligand binding assay. Conditions: Compound concentration 10.0 uM.
The target in series [32] is Delta-type opioid receptor (Homo sapiens) (UniProt P41143). The conditions noted are these: Compound concentration 10.0 uM.
For series [33], the target named is Muscarinic acetylcholine receptor M4 (Homo sapiens) (UniProt P08173). The conditions noted are these: Compound concentration 10.0 uM.

Sequence of Sodium-dependent dopamine transporter (Q01959 whole entry): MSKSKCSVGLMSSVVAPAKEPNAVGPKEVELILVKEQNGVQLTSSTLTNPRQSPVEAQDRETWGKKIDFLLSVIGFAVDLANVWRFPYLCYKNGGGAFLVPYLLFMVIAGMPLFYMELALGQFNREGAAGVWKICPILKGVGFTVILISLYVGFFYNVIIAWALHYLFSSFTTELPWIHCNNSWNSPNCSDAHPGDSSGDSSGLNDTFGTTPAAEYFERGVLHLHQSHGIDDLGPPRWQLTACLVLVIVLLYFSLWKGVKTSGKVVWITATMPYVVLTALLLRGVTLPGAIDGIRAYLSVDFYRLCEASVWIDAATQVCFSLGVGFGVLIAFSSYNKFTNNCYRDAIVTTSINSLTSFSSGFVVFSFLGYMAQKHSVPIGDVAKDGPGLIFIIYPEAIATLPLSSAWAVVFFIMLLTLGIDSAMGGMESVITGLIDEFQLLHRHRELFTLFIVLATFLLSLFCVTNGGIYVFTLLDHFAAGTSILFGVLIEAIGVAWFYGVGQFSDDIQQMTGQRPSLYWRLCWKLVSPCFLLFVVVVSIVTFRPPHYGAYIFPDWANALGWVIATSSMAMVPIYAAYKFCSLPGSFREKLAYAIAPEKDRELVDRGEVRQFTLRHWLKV
Sequence of Delta-type opioid receptor (Homo sapiens) (P41143 whole entry): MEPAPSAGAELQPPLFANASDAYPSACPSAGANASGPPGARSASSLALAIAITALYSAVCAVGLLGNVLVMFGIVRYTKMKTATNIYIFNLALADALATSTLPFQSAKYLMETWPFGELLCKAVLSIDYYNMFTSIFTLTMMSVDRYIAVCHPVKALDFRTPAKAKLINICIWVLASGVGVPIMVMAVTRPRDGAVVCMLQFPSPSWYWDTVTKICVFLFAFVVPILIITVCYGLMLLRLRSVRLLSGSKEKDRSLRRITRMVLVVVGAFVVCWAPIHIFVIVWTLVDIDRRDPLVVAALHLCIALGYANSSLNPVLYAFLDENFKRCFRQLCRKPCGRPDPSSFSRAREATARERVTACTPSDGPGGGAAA
Sequence of Alpha-1B adrenergic receptor (Homo sapiens) (P35368 whole entry): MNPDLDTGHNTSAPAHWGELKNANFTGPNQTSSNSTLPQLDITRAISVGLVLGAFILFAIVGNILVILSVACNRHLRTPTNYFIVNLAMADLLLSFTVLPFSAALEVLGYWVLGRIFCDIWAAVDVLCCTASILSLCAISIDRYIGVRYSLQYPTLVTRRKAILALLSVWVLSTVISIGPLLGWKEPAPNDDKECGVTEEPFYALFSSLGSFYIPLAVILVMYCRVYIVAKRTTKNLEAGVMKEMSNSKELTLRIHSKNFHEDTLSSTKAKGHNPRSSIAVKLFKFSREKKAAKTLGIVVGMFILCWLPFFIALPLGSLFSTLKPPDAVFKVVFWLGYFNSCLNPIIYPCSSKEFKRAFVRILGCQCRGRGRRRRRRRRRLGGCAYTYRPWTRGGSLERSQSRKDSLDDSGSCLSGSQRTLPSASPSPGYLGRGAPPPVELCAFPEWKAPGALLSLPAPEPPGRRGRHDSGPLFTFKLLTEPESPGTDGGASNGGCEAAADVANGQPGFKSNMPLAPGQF
Sequence of C5a anaphylatoxin chemotactic receptor 1 (Homo sapiens) (P21730 whole entry): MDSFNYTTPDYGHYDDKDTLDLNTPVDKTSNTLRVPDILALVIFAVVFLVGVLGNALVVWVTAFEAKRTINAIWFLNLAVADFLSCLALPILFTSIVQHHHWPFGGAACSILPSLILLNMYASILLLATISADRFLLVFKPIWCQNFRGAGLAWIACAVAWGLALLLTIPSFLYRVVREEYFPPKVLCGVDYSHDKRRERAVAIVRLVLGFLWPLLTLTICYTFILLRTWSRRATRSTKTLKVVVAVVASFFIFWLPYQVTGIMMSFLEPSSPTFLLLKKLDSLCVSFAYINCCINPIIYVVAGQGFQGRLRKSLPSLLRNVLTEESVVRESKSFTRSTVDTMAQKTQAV
Sequence of Steroid 5-alpha-reductase (Rattus norvegicus) (P24008 whole entry, looked up): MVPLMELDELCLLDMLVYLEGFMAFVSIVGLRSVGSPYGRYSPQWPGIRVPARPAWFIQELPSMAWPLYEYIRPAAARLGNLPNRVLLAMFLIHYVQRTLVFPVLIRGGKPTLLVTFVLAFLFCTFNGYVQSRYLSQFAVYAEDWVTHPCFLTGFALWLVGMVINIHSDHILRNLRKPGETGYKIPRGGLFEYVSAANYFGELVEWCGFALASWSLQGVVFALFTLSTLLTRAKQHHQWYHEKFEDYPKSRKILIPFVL
Sequence of Steroid 5-alpha-reductase (Rattus norvegicus) (P31214 whole entry, looked up): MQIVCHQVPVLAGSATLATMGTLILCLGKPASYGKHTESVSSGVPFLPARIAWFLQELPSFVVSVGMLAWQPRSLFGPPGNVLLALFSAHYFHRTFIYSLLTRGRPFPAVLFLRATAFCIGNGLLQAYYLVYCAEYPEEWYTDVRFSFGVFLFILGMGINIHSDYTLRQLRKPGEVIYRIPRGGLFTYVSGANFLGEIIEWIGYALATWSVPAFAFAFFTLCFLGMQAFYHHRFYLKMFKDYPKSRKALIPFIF
Sequence of Sodium-dependent noradrenaline transporter (Homo sapiens) (P23975 whole entry): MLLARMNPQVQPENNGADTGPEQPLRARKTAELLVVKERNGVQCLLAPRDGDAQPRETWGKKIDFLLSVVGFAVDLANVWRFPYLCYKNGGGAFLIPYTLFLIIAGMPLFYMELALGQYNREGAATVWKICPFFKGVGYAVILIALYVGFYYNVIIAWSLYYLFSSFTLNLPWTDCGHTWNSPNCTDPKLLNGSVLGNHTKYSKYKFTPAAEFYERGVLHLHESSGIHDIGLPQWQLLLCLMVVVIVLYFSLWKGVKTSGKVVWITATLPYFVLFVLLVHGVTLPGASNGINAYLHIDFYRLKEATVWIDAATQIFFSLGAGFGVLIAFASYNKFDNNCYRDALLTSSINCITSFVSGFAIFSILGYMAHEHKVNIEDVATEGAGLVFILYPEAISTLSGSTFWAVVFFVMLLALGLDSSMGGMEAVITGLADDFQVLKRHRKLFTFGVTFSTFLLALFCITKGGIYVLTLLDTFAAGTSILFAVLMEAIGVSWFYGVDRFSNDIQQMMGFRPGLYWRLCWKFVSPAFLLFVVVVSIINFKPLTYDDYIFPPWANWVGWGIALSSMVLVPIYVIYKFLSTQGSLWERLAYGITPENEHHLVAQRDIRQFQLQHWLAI
Sequence of Mitogen-activated protein kinase 3 (Homo sapiens) (P27361 whole entry): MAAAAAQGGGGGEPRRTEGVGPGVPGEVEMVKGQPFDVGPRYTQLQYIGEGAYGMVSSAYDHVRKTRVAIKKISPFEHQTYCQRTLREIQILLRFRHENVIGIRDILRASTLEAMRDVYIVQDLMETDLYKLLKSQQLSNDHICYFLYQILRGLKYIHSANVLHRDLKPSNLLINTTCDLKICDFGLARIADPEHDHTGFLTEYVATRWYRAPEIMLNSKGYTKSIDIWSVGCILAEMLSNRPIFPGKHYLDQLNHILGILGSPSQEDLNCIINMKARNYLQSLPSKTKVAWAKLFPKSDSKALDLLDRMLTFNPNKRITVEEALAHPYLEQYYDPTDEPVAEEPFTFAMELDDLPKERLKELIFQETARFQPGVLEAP
Sequence of Disintegrin and metalloproteinase domain-containing protein 17 (Homo sapiens) (P78536 whole entry, the tested form may be a part): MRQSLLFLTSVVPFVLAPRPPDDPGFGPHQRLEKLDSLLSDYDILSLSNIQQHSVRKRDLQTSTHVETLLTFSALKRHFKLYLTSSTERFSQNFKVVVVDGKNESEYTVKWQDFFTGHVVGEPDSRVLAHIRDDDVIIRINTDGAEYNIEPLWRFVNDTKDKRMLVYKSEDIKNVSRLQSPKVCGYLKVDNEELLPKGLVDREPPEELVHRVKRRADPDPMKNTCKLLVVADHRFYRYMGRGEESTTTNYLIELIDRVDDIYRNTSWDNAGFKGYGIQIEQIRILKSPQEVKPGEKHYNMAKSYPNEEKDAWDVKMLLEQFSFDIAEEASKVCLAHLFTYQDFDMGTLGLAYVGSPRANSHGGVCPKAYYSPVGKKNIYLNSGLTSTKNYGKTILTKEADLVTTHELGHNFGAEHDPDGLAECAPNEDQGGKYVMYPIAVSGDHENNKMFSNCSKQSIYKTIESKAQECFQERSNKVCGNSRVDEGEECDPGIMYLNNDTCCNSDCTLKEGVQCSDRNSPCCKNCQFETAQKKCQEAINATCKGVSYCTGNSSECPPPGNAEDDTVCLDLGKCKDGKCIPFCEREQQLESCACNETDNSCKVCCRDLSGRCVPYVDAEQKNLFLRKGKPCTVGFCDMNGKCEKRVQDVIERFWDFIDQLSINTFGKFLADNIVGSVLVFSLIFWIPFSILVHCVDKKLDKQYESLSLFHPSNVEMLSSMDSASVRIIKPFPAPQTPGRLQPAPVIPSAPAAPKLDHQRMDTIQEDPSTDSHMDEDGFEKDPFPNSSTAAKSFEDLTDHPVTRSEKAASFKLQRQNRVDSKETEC
Sequence of Free fatty acid receptor 1 (O14842 whole entry): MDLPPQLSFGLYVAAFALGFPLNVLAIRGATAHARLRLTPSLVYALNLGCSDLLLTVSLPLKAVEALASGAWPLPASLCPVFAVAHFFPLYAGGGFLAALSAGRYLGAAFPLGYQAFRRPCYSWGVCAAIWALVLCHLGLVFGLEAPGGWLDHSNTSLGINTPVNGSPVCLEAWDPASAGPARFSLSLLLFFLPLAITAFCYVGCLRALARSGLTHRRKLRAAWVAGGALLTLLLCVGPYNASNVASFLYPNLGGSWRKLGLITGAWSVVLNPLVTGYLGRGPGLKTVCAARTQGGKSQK
Sequence of Neuromedin-K receptor (Homo sapiens) (P29371 whole entry): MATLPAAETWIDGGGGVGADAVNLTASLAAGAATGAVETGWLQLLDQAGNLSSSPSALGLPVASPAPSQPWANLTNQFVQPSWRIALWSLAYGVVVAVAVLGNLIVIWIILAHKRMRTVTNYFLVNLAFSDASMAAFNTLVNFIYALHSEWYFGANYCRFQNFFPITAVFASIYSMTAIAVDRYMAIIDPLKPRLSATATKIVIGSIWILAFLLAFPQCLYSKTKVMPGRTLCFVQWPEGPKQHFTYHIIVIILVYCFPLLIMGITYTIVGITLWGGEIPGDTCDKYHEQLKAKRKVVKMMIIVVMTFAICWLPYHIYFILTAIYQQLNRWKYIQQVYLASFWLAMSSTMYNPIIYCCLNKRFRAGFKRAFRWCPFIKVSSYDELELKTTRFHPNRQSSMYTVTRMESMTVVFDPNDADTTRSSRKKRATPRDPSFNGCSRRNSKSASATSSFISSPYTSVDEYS

Take `Cc1cc(OC2CCS(=O)(=O)CC2)cc(C)c1-c1cccc(COc2ccc(CCC(=O)O)c(F)c2)c1`: the Ki in series [1] was more than 10 µM. In addition, in series [1], the pKi is less than 5. In addition, the inhibition was 14% in series [2]; 3% in series [3]; 30% in series [4]; -3% in series [5]; 20% in series [6]; 5% in the series listed under Bos taurus [7]. In addition, the inhibition is -8% in the series filed under Rattus norvegicus [8]; 0% in series [9]; 85% in [10]; 20% in the series filed under Bos taurus [11]; 61% in series [12]; -1% in the series filed under Rattus norvegicus [13]. Besides, the inhibition in series [14] is 27%; in series [15], -10%; on Renin (Homo sapiens) it was -1%; in series [16], 36%; in series [17], 14%; in series [18], 10%. The inhibition is 19% in [19]; 64% in series [20]; 30% in series [21]; 13.3% in series [22]; 19.1% in series [23]; 0.86% in series [24]. In addition, the inhibition is -0.04% in the series filed under Rattus norvegicus [25], 50.8% in series [26], -6% in series [27] and 1% in the series filed under Homo sapiens. The inhibition at 60 min, 10 µM on MAO-B was 6% (not active). Further, in series [28], the inhibition at 30 min, 10 µM was 1% (not active).

For the compound `Cc1cc(OC2CCS(=O)(=O)CC2)cc(C)c1-c1cccc(COc2ccc(C(=O)O)c(F)c2)c1`, the inhibition is -6% in series [29], -1% in series [31], -7.07% in series [32] and -4.72% in [33]. Moreover, the EC50 in [30] is given as > 10 µM (not active).
